What all share (format): in vivo, Male Sprangue Dawley rats
For one assay, the system named is DHT. Nature of the assay: Serum DHT levels (ELISA) in rats with testosterone propionate-induced BPH. Conditions: per os daily for 14 days, co-micronized PEA-Baicalein 10 mg/kg (9:1), um-PEA 9 mg/kg, Baicalein 1 mg/kg, vs BPH+vehicle, FIG. 2A. From the text:
(§1) Male Sprangue Dawley rats (200-250 gr, Envigo, Italy) fed ad libitum and housed in cages with controlled sleep/wake cycle were used for the in vivo experimentation. Before the start of the experimentation, the animals were subjected to an acclimatization period of one week considering all the experimental procedures and protocols, compliant with the principles of care and welfare of laboratory animals approved by the Italian Ministry of Health and European directives (Italian Legislative Decree 2014/26 and EU Directive 2010/63) and by the OPBA of the University of Messina. […]
(§2) The animals were euthanized 14 days after the start of the experimentation. […] Specifically, the DHT levels were analyzed in the plasma samples with the commercially available Enzyme-linked Immunosorbent Assay (ELISA) (My BioSource). The samples were dosed with the microplate reader and the absorbance was read spectrophotometrically at 450 nm. […] The protein expression was quantified by densitometry (BIORAD ChemiDoc™ XRS+software) and normalized to the housekeeping gene β-actin.
A general note: In an ELISA, binding on a coated surface is turned into a signal by an enzyme label.

The test system of the next assay is 5α-red 2. Nature of the assay: Western blot of 5α-red 2 in prostate tissue of BPH rats. Conditions: per os daily for 14 days, co-micronized PEA-Baicalein 10 mg/kg, um-PEA 9 mg/kg, Baicalein 1 mg/kg, normalized to β-actin, FIG. 2B.
Excerpt: as §1, §2
On the technique in general: Immunoblotting shows a protein as a band on a membrane.

The next assay has as its system AR. Nature of the assay: Western blot of AR in prostate tissue of BPH rats. Conditions: per os daily for 14 days, co-micronized PEA-Baicalein 10 mg/kg, um-PEA 9 mg/kg, Baicalein 1 mg/kg, vs BPH+vehicle, FIG. 2C.
Excerpt: as §1, §2

The subject of the next assay is PSA. Nature of the assay: Western blot of PSA in prostate tissue of BPH rats. Particulars: per os daily for 14 days, co-micronized PEA-Baicalein 10 mg/kg, um-PEA 9 mg/kg, Baicalein 1 mg/kg, vs BPH+vehicle, FIG. 2D.
Excerpt: as §1, §2

The subject of a further assay is Bcl-2. Put plainly: Western blot of anti-apoptotic factor Bcl-2 in prostate tissue of BPH rats. Conditions: per os daily for 14 days, co-micronized PEA-Baicalein 10 mg/kg, um-PEA 9 mg/kg, Baicalein 1 mg/kg, vs BPH+vehicle, FIG. 3B.
Excerpt: as §1, §2

The test system of the next assay is Bax. Nature of the assay: Western blot of pro-apoptotic factor Bax in prostate tissue of BPH rats. Conditions: per os daily for 14 days, co-micronized PEA-Baicalein 10 mg/kg, um-PEA 9 mg/kg, Baicalein 1 mg/kg, vs BPH+vehicle, FIG. 3C.
Excerpt: as §1, §2

Assay [1] has as its system testosterone propionate-induced BPH (Benign Prostatic Hyperplasia). Put plainly: Weight of the prostate in BPH rats. Conditions: per os daily for 14 days, co-micronized PEA-Baicalein 10 mg/kg, um-PEA 9 mg/kg, FIG. 3A.
Excerpt: as §1, §2

`O=c1cc(-c2ccccc2)oc2cc(O)c(O)c(O)c12` [Baicalein, 5,6,7-trihydroxyflavone]: the “Serum levels of DHT” value in the assay on DHT is listed as “markedly elevated”. The “Expression of the 5α-red 2 protein in prostate tissue (WB densitometry)” value in the assay on 5α-red 2 is listed as “not capable of reducing the expression of such an enzyme”. In the assay with AR, the “Expression (tissue levels) of AR (WB densitometry)” value is on record as “did not bring significant changes”. Moreover, the “Expression (tissue levels) of PSA (WB densitometry)” value with PSA is “did not bring significant changes”. In addition, in the assay on Bcl-2, the “Levels of the anti-apoptotic factor Bcl-2 (WB densitometry)” value is reported as “did not show a statistically significant change”. Moreover, the “Expression of the pro-apoptotic factor Bax (WB densitometry)” value in the assay on Bax is reported as “did not show a statistically significant change”.

In the case of `CCCCCCCCCCCCCCCC(=O)NCCO` [um-PEA, Palmitoylethanolamide], in the assay with DHT, the “Serum levels of DHT” value was “more than the um-PEA (9 mg/kg), significantly reduces serum DHT”. For the same molecule, the “Expression of the 5α-red 2 protein in prostate tissue (WB densitometry)” value with 5α-red 2 is listed as “more than the um-PEA alone at 9 mg/kg, significantly reduces the expression of the enzyme 5α-red 2”. Moreover, the “Expression (tissue levels) of PSA (WB densitometry)” value with PSA was “significantly greater and clearer effect, with respect to um-PEA alone”. The “Weight of the prostate” value in assay [1] is “progressive decrease in prostate weight”. Also, the “Levels of the anti-apoptotic factor Bcl-2 (WB densitometry)” value in the assay with Bcl-2 was “decidedly minor effect and with lower statistical significance”. In the assay with Bax, the “Expression of the pro-apoptotic factor Bax (WB densitometry)” value was “decidedly minor effect and with lower statistical significance”.
